Structures are written as SMILES.

For experiment [1], the system named is Schistosoma mansoni. The experiment is described as follows: Antischistosomal activity against adult female Schistosoma mansoni BH derived from infected Swiss mouse assessed as reduction in motility measured after 24 hrs by automated image-based analysis. The format is functional, organism-based.
The subject of experiment [2] is Schistosoma mansoni. The experiment is described as follows: Antischistosomal activity against adult male Schistosoma mansoni BH derived from infected Swiss mouse assessed as reduction in motility measured after 24 hrs by automated image-based analysis. The format is functional, organism-based.
For experiment [3], the system named is Schistosoma mansoni. The experiment is described as follows: Antischistosomal activity against adult female Schistosoma mansoni BH derived from infected Swiss mouse assessed as reduction in motility measured immediately after treatment by automated image-based analysis. In kind it is functional, organism-based.
Experiment [4] deals with Schistosoma mansoni. In words: Antischistosomal activity against adult female Schistosoma mansoni BH derived from infected Swiss mouse assessed as reduction in motility measured after 72 hrs by automated image-based analysis. The format is functional, organism-based.
For experiment [5], the system named is Schistosoma mansoni. In words: Antischistosomal activity against adult male Schistosoma mansoni BH derived from infected Swiss mouse assessed as reduction in motility measured after 48 hrs by automated image-based analysis. The format is functional, organism-based.
The test system of experiment [6] is Schistosoma mansoni. The experiment is described as follows: Antischistosomal activity against adult male Schistosoma mansoni BH derived from infected Swiss mouse assessed as reduction in motility measured immediately after treatment by automated image-based analysis. The format is functional, organism-based.
Experiment [7] relates to Schistosoma mansoni. The experiment is described as follows: Antischistosomal activity against adult female Schistosoma mansoni BH derived from infected Swiss mouse assessed as reduction in motility measured after 48 hrs by automated image-based analysis. The format is functional, organism-based.
In experiment [8] the test system is Schistosoma mansoni. The experiment is described as follows: Antischistosomal activity against newly transformed Schistosoma mansoni BH assessed as decrease in viability after 72 hrs by resazurin-based spectrophotometric assay. In kind it is functional, organism-based. (In general: Alamar Blue is a resazurin reagent that responds to reducing activity.)
A short description of experiment [9]: Inhibition of Schistosoma mansoni SERT.
Experiment [10] deals with Schistosoma mansoni. The experiment is described as follows: Antischistosomal activity against adult male Schistosoma mansoni BH derived from infected Swiss mouse assessed as reduction in motility measured after 72 hrs by automated image-based analysis. The format is functional, organism-based.

Turning to `O=C(C1CCCCC1)N1CC(=O)N2CCc3ccccc3C2C1` (stereo unspecified) [PRAZIQUANTEL], the EC50 – broadly, the concentration at which the effect is half-maximal – with Schistosoma mansoni [1] was 300 nM; in the experiment with Schistosoma mansoni [2], 120 nM; in the experiment on Schistosoma mansoni [3], 130 nM; in the experiment with Schistosoma mansoni [4], 660 nM; in the experiment with Schistosoma mansoni [5] it was 130 nM; with Schistosoma mansoni [6], 110 nM.
Take `Fc1ccc([C@@H]2CCNC[C@H]2COc2ccc3c(c2)OCO3)cc1` [PAROXETINE]: the EC50 worked out at 9900 nM in the experiment on Schistosoma mansoni [1]; 5100 nM in the experiment on Schistosoma mansoni [2]; 11500 nM in the experiment on Schistosoma mansoni [7]; 17400 nM in the experiment with Schistosoma mansoni [3]; 11900 nM with Schistosoma mansoni [4]; 3800 nM in the experiment with Schistosoma mansoni [5]. Moreover, the half-maximal effective concentration (EC50) in the experiment on Schistosoma mansoni [6] was determined as 23500 nM; with Schistosoma mansoni [10], 2700 nM. Further, the figures for the IC50 (in the experiment on Schistosoma mansoni [8]; in experiment [9]) were 2500 nM and 90 nM, respectively.

The values are drawn from ChEMBL document CHEMBL3817844 (Medchemcomm, 2016).
